For 40 compounds, ED50 results are on record in US4695569A, “Bicyclic heterocyclyl containing N-(bicyclic heterocyclyl)-4-piperidinamines” (Janssen Pharmaceutica N.V., priority 1987, dated 1987).

In experiment [1] the test system is compound 48/80-induced lethality. Briefly: Protection of rats from compound 48/80-induced lethality. In kind it is in vivo, rat (male, inbred Wistar strain). To be noted: Rattus norvegicus, 4 h, read-out: Compound 48/80 lethality test in rats-ED50. The method, then:
Protection of rats from compound 48/80-induced lethality
The protection from compound 48/80-induced lethal circulatory collapse appears to be a simple way of evaluating quantitatively the antihistaminic activity of test compounds. Male rats of an inbred Wistar strain, weighing 240-260 g were used in the experiment. After overnight starvation the rats were transferred to conditioned laboratories (temp.=21±1° C., relative humidity=65±5%).
The rats were treated subcutaneously or orally with a test compound or with the solvent (NaCl solution, 0.9%). […] Survival after 4 hours is therefore considered to be a safe criterion of a protective effect of drug administration.
The ED50 -values of the compounds of formula (I) are listed in the first column of table 1. Said ED50 -values are the values in mg/kg body weight at which the tested compounds protect 50% of the tested animals against compound 48/80-induced lethality.

The test system of experiment [2] is serotonin. The experiment is described as follows: Antagonistic activity on the effects of serotonin in the gastric lesion test (lesions induced by compound 48/80). In kind it is in vivo, rat (male, Wistar inbred strain). The source says:
The compounds of formula (I) and the pharmaceutically acceptable acid addition salts thereof are also potent serotonin-antagonists. The potency of the subject compounds as serotonin-antagonists is clearly evidenced by the results obtained in the following tests wherein the antagonistic activity of the subject compounds on the effect of serotonin is examined.
Antagonistic activity on the effects of serotonin in the gastric lesion test
Comound 48/80 (a mixture of oligomers obtained by condensation of 4-methoxy-N-methylbenzeneethanamine and formaldehyde) is a potent releaser of vasoactive amines from endogenous stores such as, for example, histamine and serotonin. […] The shock, followed by dead, can be avoided if the rats are pretreated with a classical H 1 antagonist.
Male rats of a Wistar inbred strain, weighing 220-250 g, were starved overnight, water being available ad libitum. The test compounds were administered orally as a solution or as a suspension in aqueous medium. A control rat and a "blank" rat received the test compound. One hour later 5-[4-(diphenylmethyl)-1-piperazinylmethyl]-1-methyl-1H-benzimidazole-2-methanol was administered subcutaneously to all rats at the dose of 2.5 mg/kg.
Four hours after the intravenous injection of compound 48/80, the rats were decapitated and the stomachs were removed. Subsequently the stomachs ere inspected for distension and contents (blood, fluid, food) and thoroughly rinsed. The macroscopic lesions were scored from 0 to +++, 0 corresponding to complete absence of visible lesions and the highest score corresponding to reddish rough patches covering more than half the glandular area.

[3] abbreviates: Rattus norvegicus, po, 4 h; read-out: gastric lesion test ED50 (distension of the stomach and lesions in the glandular area completely absent in 50% of rats).
The mark [4] stands for this setting: Rattus norvegicus, po, 4 h, read-out: gastric lesion test ED50 (distension of the stomach and lesions in the glandular area completely absent in 50% of rats).

Where two headings read alike, the source gives them in different places.

Regarding `Cc1nc2n(c(=O)c1CCN1CCC(Nc3nc4ccccc4n3Cc3ccc(F)cc3)CC1)CCS2` [Compound 17], the ED50 in experiment [1] is 0.31 mg/kg; in experiment [2] (setting [3]) it was 0.63 mg/kg.
Turning to `Cc1nc2n(c(=O)c1CCN1CCC(Nc3nc4ccccc4n3Cc3ccco3)CC1)CCS2` [Compound 18], the figures for the ED50 in experiment [1] and in experiment [2] (setting [3]) were 0.08 mg/kg and 0.16 mg/kg, respectively.
Turning to `Cc1nc2ccccn2c(=O)c1CCN1CCC(Nc2nc3ccccc3n2Cc2cscn2)CC1` [Compound 19], the results for the ED50 in experiment [1] and in experiment [2] (setting [3]) were 0.08 mg/kg and 0.01 mg/kg, respectively.
On the same counts, the results for `Cc1ccc2nc(C)c(CCN3CCC(Nc4nc5cccnc5n4Cc4ccco4)CC3)c(=O)n2c1` [Compound 20] are 0.04 mg/kg and 0.63 mg/kg.
In the case of `Cc1nc2ccc(Cl)cn2c(=O)c1CCN1CCC(Nc2nc3cccnc3n2Cc2ccco2)CC1` [Compound 21], the ED50 was 0.04 mg/kg in experiment [1] and 0.63 mg/kg in experiment [2] (setting [3]).
Turning to `O=c1[nH]c2ccccc2c(=O)n1CCN1CCC(Nc2nc3ccccc3n2Cc2ccco2)CC1` [Compound 24], the values for the ED50 in experiment [1] and in experiment [2] (setting [3]) were 0.08 mg/kg and 0.63 mg/kg, respectively.
In the case of `Cc1nc2sccn2c(=O)c1CCN1CCC(Nc2nc3cccnc3n2Cc2ccco2)CC1` [Compound 28], the ED50 turned out to be 0.04 mg/kg in experiment [1] and 0.16 mg/kg in experiment [2] (setting [4]).
For `Cc1nc2sccn2c(=O)c1CCN1CCC(Nc2nc3ccccc3n2Cc2ccco2)CC1` [Compound 31], the ED50 in experiment [1] amounted to 0.04 mg/kg; in experiment [2] (setting [3]) it was 0.02 mg/kg.
Taken in the same sequence, the figures for `Cn1c(=O)n(CCN2CCC(Nc3nc4ccccc4n3Cc3ccco3)CC2)c(=O)c2ccccc21` [Compound 34] were 0.08 mg/kg and 0.16 mg/kg.
Consider `Cn1c(=O)c2c(ncn2CCN2CCC(Nc3nc4ccccc4n3Cc3ccco3)CC2)n(C)c1=O` [Compound 39], for which the ED50 turned out to be 0.16 mg/kg in experiment [1] and 0.63 mg/kg in experiment [2] (setting [3]).
Consider `Fc1ccc(Cn2c(NC3CCN(Cc4cn5cccnc5n4)CC3)nc3ccccc32)cc1` [Compound 40], for which the ED50 in experiment [1] and in experiment [2] (setting [4]) was 0.16 mg/kg throughout.
With `Fc1ccc(Cn2c(NC3CCN(Cc4cn5ccccc5n4)CC3)nc3ccccc32)cc1` [Compound 41], the ED50 in experiment [1] turned out to be 0.16 mg/kg; in experiment [2] (setting [3]) it was 0.63 mg/kg.
Regarding `Fc1ccc(Cn2c(NC3CCN(Cc4cn5ccncc5n4)CC3)nc3ccccc32)cc1` [Compound 49], the ED50 in experiment [1] was determined as 0.16 mg/kg; in experiment [2] (setting [3]), 0.63 mg/kg.
`Cc1nc2ccccn2c(=O)c1CCN1CCC(Nc2nc3ccccc3n2Cc2cccs2)CC1` [Compound 52]: the ED50 was 0.31 mg/kg in experiment [1] and 1.25 mg/kg in experiment [2] (setting [4]).
As to `Cc1nc2ccccn2c(=O)c1CCN1CCC(Nc2nc3cccnc3n2Cc2ccccn2)CC1` [Compound 55], the ED50 was found to be 0.08 mg/kg in experiment [1] and 0.16 mg/kg in experiment [2] (setting [3]).
`Cc1nc2n(c(=O)c1CCN1CCC(Nc3nc4cccnc4n3Cc3ccco3)CC1)CC(C)CC2` (centres unmarked) [Compound 58]: the ED50 in experiment [1] stood at 0.04 mg/kg; in experiment [2] (setting [3]), 0.63 mg/kg.
Consider `Cc1nc2n(c(=O)c1CCN1CCC(Nc3nc4ccccc4n3Cc3cccs3)CC1)CCCC2` [Compound 59], for which the ED50 in experiment [1] came out at 0.08 mg/kg; in experiment [2] (setting [3]), 0.31 mg/kg.
Turning to `Cc1nc2n(c(=O)c1CCN1CCC(Nc3nc4cccnc4n3Cc3ccc(F)cc3)CC1)CCCC2` [Compound 61], the ED50 in experiment [1] was found to be 0.04 mg/kg; in experiment [2] (setting [3]), 0.31 mg/kg.
In the case of `Cc1nc2n(c(=O)c1CCN1CCC(Nc3nc4ccccc4n3Cc3cscn3)CC1)CCCC2` [Compound 62], the ED50 stood at 0.04 mg/kg in experiment [1] and 0.63 mg/kg in experiment [2] (setting [4]).
With `Cc1nc2n(c(=O)c1CCN1CCC(Nc3nc4cccnc4n3Cc3ccco3)CC1)C(C)CC(C)C2` (centres unmarked) [Compound 63], the ED50 in experiment [1] was 0.08 mg/kg; in experiment [2] (setting [3]), 0.63 mg/kg.
Turning to `Cc1nc2ccccn2c(=O)c1CCN1CCC(Nc2nc3cc(F)c(F)cc3n2Cc2ccc(F)cc2)CC1` [Compound 70], the ED50 in experiment [1] is 0.31 mg/kg; in experiment [2] (setting [3]), 0.63 mg/kg.
Taken in the same sequence, the figures for `Cc1ccn2c(=O)c(CCN3CCC(Nc4nc5cccnc5n4Cc4ccco4)CC3)c(C)nc2c1` [Compound 74] were 0.04 mg/kg and 0.16 mg/kg.
For `Cc1cc(C)n2c(=O)c(CCN3CCC(Nc4nc5cccnc5n4Cc4ccco4)CC3)c(C)nc2c1` [Compound 77], the ED50 in experiment [1] worked out at 0.16 mg/kg; in experiment [2] (setting [3]) it was 0.31 mg/kg.
Taken in the same sequence, the figures for `OCCn1cnc2c(NCCN3CCC(Nc4nc5ccccc5n4Cc4ccc(F)cc4)CC3)ncnc21` [Compound 93, 6-[[2-[4-[[1-[(4-fluorophenyl)methyl]-1H-benzimidazol-2-yl]amino]-1-piperidinyl]ethyl]amino]-9H-purine-9-ethanol] were 0.08 mg/kg and 0.16 mg/kg.
Taken in the same sequence, the figures for `Cn1cnc2c(NCCN3CCC(Nc4nc5ccccc5n4Cc4ccc(F)cc4)CC3)ncnc21` [Compound 94] were 0.31 mg/kg and 0.63 mg/kg.
Consider `Fc1ccc(Cn2c(NC3CCN(CCNc4ncnc5c4ncn5Cc4ccccc4)CC3)nc3ccccc32)cc1` [Compound 95], for which the figures for the ED50 in experiment [1] and in experiment [2] (setting [3]) were 0.16 mg/kg and 0.63 mg/kg, respectively.
Regarding `Fc1ccc(Cn2c(NC3CCN(CCNc4ncnc5[nH]cnc45)CC3)nc3ccccc32)cc1` [Compound 97], the values for the ED50 in experiment [1] and in experiment [2] (setting [3]) were 0.08 mg/kg and 0.04 mg/kg, respectively.
Turning to `Fc1ccc(Cn2c(NC3CCN(CCNc4nc5cccnc5s4)CC3)nc3ccccc32)cc1` [Compound 103, N-[2-[4-[[1-[(4-fluorophenyl)methyl]-1H-benzimidazol-2-yl]amino]-1-piperidinyl]ethyl]thiazolo[5,4-b]pyridin-2-amine], the results for the ED50 in experiment [1] and in experiment [2] (setting [3]) were 0.16 mg/kg and 0.63 mg/kg, respectively.
`Fc1ccc(Cn2c(NC3CCN(CCNc4nc5cnccc5s4)CC3)nc3ccccc32)cc1` [Compound 104, N-[2-[4-[[1-[(4-fluorophenyl)methyl]-1H-benzimidazol-2-yl]amino]-1-piperidinyl]ethyl]thiazolo[4,5-c]pyridin-2-amine]: the ED50 in experiment [1] was determined as 0.16 mg/kg; in experiment [2] (setting [3]) it was 0.31 mg/kg.
Taken in the same sequence, the figures for `Cn1c(NCCN2CCC(Nc3nc4ccccc4n3Cc3ccc(F)cc3)CC2)nc2cnccc21.O` [Compound 108, N-[2-[4-[[1-[(4-fluorophenyl)methyl]-1H-benzimidazol-2-yl]amino]-1-piperidinyl]ethyl]-1-methyl-1H-imidazo[4,5-c]pyridin-2-amine monohydrate] were 0.04 mg/kg and 0.16 mg/kg.
On the same counts, the results for `Fc1ccc(Cn2c(NC3CCN(CCNc4nc5cnccc5[nH]4)CC3)nc3ccccc32)cc1` [Compound 109] are 0.04 mg/kg and 0.04 mg/kg.
Taken in the same sequence, the figures for `Fc1ccc(Cn2c(NC3CCN(CCNc4nc5ncccc5[nH]4)CC3)nc3ccccc32)cc1` [Compound 110] were 0.16 mg/kg and 0.31 mg/kg.
For `c1coc(Cn2c(NC3CCN(CCNc4nc5cnccc5[nH]4)CC3)nc3ccccc32)c1` [Compound 111], the ED50 in experiment [1] was 0.02 mg/kg; in experiment [2] (setting [3]), 0.08 mg/kg.
In the case of `Fc1ccc(Cn2c(NC3CCN(CCNc4nc5cnccc5[nH]4)CC3)nc3ncccc32)cc1` [Compound 112], the values for the ED50 in experiment [1] and in experiment [2] (setting [3]) were 0.02 mg/kg and 0.16 mg/kg, respectively.
Take `Fc1ccc(Cn2c(NC3CCN(CCNc4nc5cnccc5[nH]4)CC3)nc3cccnc32)cc1` [Compound 114]: the ED50 in experiment [1] is 0.02 mg/kg; in experiment [2] (setting [3]) it was 0.63 mg/kg.
As to `c1ccc(Cn2c(NC3CCN(CCNc4nc5cnccc5[nH]4)CC3)nc3ccccc32)nc1` [Compound 115], the ED50 in experiment [1] was 0.02 mg/kg; in experiment [2] (setting [4]), 0.16 mg/kg.
For `c1csc(Cn2c(NC3CCN(CCNc4nc5cnccc5[nH]4)CC3)nc3ccccc32)c1` [Compound 117], the ED50 in experiment [1] came out at 0.02 mg/kg; in experiment [2] (setting [3]), 0.31 mg/kg.
Taken in the same sequence, the figures for `c1coc(Cn2c(NC3CCN(CCNc4nc5cnccc5[nH]4)CC3)nc3cccnc32)c1` [Compound 119] were 0.04 mg/kg and 0.63 mg/kg.
`Fc1ccc(Cn2c(NC3CCN(CCCCNc4nc5cnccc5[nH]4)CC3)nc3ccccc32)cc1` [Compound 121, N-[4-[4-[[1-[(4-fluorophenyl)methyl]-1H-benzimidazol-2-yl]amino]-1-piperidinyl]butyl]-1H-imidazo[4,5-c]pyridin-2-amine]: the ED50 in experiment [1] and in experiment [2] (setting [3]) was 0.02 mg/kg throughout.
For `Fc1ccc(Cn2c(NC3CCN(CCCNc4nc5cnccc5[nH]4)CC3)nc3ccccc32)cc1` [Compound 122, N-[3-[4-[[1-[(4-fluorophenyl)methyl]-1H-benzimidazol-2-yl]amino]-1-piperidinyl]propyl]-1H-imidazo[4,5-c]pyridin-2-amine ethanedioate(2:7)], the ED50 in experiment [1] came out at 0.02 mg/kg; in experiment [2] (setting [3]) it was 0.63 mg/kg.
